# In ChEMBL document CHEMBL1649565, “Besifloxacin, a novel fluoroquinolone, has broad-spectrum in vitro activity against aerobic and anaerobic bacteria” (Antimicrob Agents Chemother, 2009):
# The source made the active and inactive calls. The rule behind the calls is not given here.
# Columns and labels:
# [1] = Antibacterial activity against Lancefield Streptococcus sp. 'group C' by CLSI M100-S18 method; assay type: functional
# [2] = test system: Cutibacterium acnes; test: Antibacterial activity against Propionibacterium acnes by CLSI M11-A7 method; assay type: functional
# [3] = test system: Serratia marcescens; test: Antibacterial activity against Serratia marcescens by CLSI M7-A7 method; assay type: functional
# [4] = test system: Klebsiella pneumoniae; test: Antibacterial activity against Klebsiella pneumoniae assessed as percent susceptible isolates by CLSI M7-A7 method; assay type: functional
# [5] = test system: Streptococcus oralis; test: Antibacterial activity against Streptococcus oralis assessed as percent susceptible isolates by CLSI M100-S18 method; assay type: functional
# [6] = test system: Neisseria meningitidis; test: Antibacterial activity against Neisseria meningitidis by CLSI M7-A7 method; assay type: functional
# [7] = test system: Streptococcus oralis; test: Antibacterial activity against Streptococcus oralis by CLSI M100-S18 method; assay type: functional
# [8] = test system: Clostridium perfringens; test: Antibacterial activity against Clostridium perfringens by CLSI M11-A7 method; assay type: functional
# [9] = test system: Proteus vulgaris; test: Antibacterial activity against Proteus vulgaris assessed as percent susceptible isolates by CLSI M7-A7 method; assay type: functional
# [10] = test system: Enterobacter cloacae; test: Antibacterial activity against Enterobacter cloacae by CLSI M7-A7 method; assay type: functional
# [11] = test system: Streptococcus sanguinis; test: Antibacterial activity against Streptococcus sanguinis assessed as percent susceptible isolates by CLSI M100-S18 method; assay type: functional
# [12] = test system: Streptococcus sanguinis; test: Antibacterial activity against Streptococcus sanguinis by CLSI M100-S18 method; assay type: functional
# [13] = test system: Staphylococcus hominis; test: Antibacterial activity against Staphylococcus hominis by CLSI M100-S18 method; assay type: functional
# [14] = test system: Staphylococcus saprophyticus; test: Antibacterial activity against Staphylococcus saprophyticus by CLSI M100-S18 method; assay type: functional
# [15] = test system: Bacteroides fragilis; test: Antibacterial activity against Bacteroides fragilis by CLSI M11-A7 method; assay type: functional
# [16] = test system: Streptococcus pneumoniae; test: Antibacterial activity against levofloxacin susceptible Streptococcus pneumoniae assessed as percent susceptible isolates by CLSI M100-S18 method; assay type: functional
# [17] = test system: Proteus vulgaris; test: Antibacterial activity against Proteus vulgaris by CLSI M7-A7 method; assay type: functional
# [18] = test system: Staphylococcus epidermidis; test: Antibacterial activity against non-ciprofloxacin-susceptible and methicillin-susceptible Staphylococcus epidermidis assessed as percent susceptible isolates by CLSI M100-S18 method; assay type: functional
# [19] = test system: Staphylococcus warneri; test: Antibacterial activity against Staphylococcus warneri assessed as percent susceptible isolates by CLSI M100-S18 method; assay type: functional
# [20] = test system: Streptococcus equinus; test: Antibacterial activity against Streptococcus bovis assessed as percent susceptible isolates by CLSI M100-S18 method; assay type: functional
# [21] = test system: Acinetobacter lwoffii; test: Antibacterial activity against Acinetobacter lwoffii by CLSI M7-A7 method; assay type: functional
# [22] = test system: Morganella morganii; test: Antibacterial activity against Morganella morganii by CLSI M7-A7 method; assay type: functional
# [23] = test system: Staphylococcus aureus; test: Antibacterial activity against non-ciprofloxacin-susceptible and methicillin-susceptible Staphylococcus aureus assessed as percent susceptible isolates by CLSI M100-S18 method; assay type: functional
# [24] = test system: Streptococcus intermedius; test: Antibacterial activity against Streptococcus intermedius assessed as percent susceptible isolates by CLSI M100-S18 method; assay type: functional
# [25] = test system: Serratia marcescens; test: Antibacterial activity against levofloxacin susceptible Serratia marcescens assessed as percent susceptible isolates by CLSI M7-A7 method; assay type: functional
# [26] = test system: Acinetobacter baumannii; test: Antibacterial activity against Acinetobacter baumannii by CLSI M7-A7 method; assay type: functional
# [27] = test system: Staphylococcus epidermidis; test: Antibacterial activity against non-ciprofloxacin-susceptible and methicillin-susceptible Staphylococcus epidermidis by CLSI M100-S18 method; assay type: functional
# [28] = test system: Staphylococcus lugdunensis; test: Antibacterial activity against Staphylococcus lugdunensis assessed as percent susceptible isolates by CLSI M100-S18 method; assay type: functional
# [29] = test system: Clostridium perfringens
# [30] = test system: Staphylococcus aureus; test: Antibacterial activity against ciprofloxacin-susceptible and methicillin-resistant Staphylococcus aureus assessed as percent susceptible isolates by CLSI M100-S18 method; assay type: functional
# [31] = test system: Streptococcus salivarius; test: Antibacterial activity against Streptococcus salivarius assessed as percent susceptible isolates by CLSI M100-S18 method; assay type: functional
# [32] = test system: Streptococcus equinus; test: Antibacterial activity against Streptococcus bovis by CLSI M100-S18 method; assay type: functional
# [33] = test system: Streptococcus mitis; test: Antibacterial activity against Streptococcus mitis assessed as percent susceptible isolates by CLSI M100-S18 method; assay type: functional
# [34] = test system: Streptococcus anginosus; test: Antibacterial activity against Streptococcus anginosus assessed as percent susceptible isolates by CLSI M100-S18 method; assay type: functional
# [35] = test system: Streptococcus constellatus; test: Antibacterial activity against Streptococcus constellatus assessed as percent susceptible isolates by CLSI M100-S18 method; assay type: functional
# [36] = test system: Staphylococcus haemolyticus; test: Antibacterial activity against Staphylococcus haemolyticus by CLSI M100-S18 method; assay type: functional
# [37] = test system: Moraxella catarrhalis; test: Antibacterial activity against Moraxella catarrhalis assessed as percent susceptible isolates by CLSI M7-A7 method; assay type: functional
# [38] = test system: Stenotrophomonas maltophilia; test: Antibacterial activity against non-levofloxacin susceptible Stenotrophomonas maltophilia assessed as percent susceptible isolates by CLSI M7-A7 method; assay type: functional
# [39] = test system: Pseudomonas aeruginosa; test: Antibacterial activity against non-ciprofloxacin-susceptible Pseudomonas aeruginosa assessed as percent susceptible isolates by CLSI M7-A7 method; assay type: functional
# [40] = test system: Stenotrophomonas maltophilia; test: Antibacterial activity against levofloxacin-susceptible Stenotrophomonas maltophilia assessed as assessed as percent susceptible isolates by CLSI M7-A7 method; assay type: functional
# [41] = test system: Acinetobacter baumannii; test: Antibacterial activity against Acinetobacter baumannii assessed as percent susceptible isolates by CLSI M7-A7 method; assay type: functional
# [42] = test system: Acinetobacter calcoaceticus; test: Antibacterial activity against Acinetobacter calcoaceticus assessed as percent susceptible isolates by CLSI M7-A7 method; assay type: functional
# [43] = Antibacterial activity against Lancefield Streptococcus sp. 'group G' assessed as percent susceptible isolates by CLSI M100-S18 method; assay type: functional
# [44] = test system: Pseudomonas aeruginosa; test: Antibacterial activity against ciprofloxacin-susceptible Pseudomonas aeruginosa assessed as percent susceptible isolates by CLSI M7-A7 method; assay type: functional
# [45] = test system: Acinetobacter lwoffii; test: Antibacterial activity against Acinetobacter lwoffii assessed as percent susceptible isolates by CLSI M7-A7 method; assay type: functional
# [46] = test system: Neisseria meningitidis; test: Antibacterial activity against Neisseria meningitidis assessed as percent susceptible isolates by CLSI M7-A7 method; assay type: functional
# [47] = test system: Enterococcus faecalis; test: Antibacterial activity against vancomycin- resistant Enterococcus faecalis assessed as percent susceptible isolates by CLSI M100-S18 method; assay type: functional
smiles,measurement,setting,value
N[C@@H]1CCCCN(c2c(F)cc3c(=O)c(C(=O)O)cn(C4CC4)c3c2Cl)C1 [BESIFLOXACIN],MIC50,[1],0.03 µg/mL
same,MIC90,[1],0.06 µg/mL
same,MIC50,[2],0.25 µg/mL
same,MIC90,[2],0.25 µg/mL
same,MIC50,[3],0.25 µg/mL
same,MIC90,[3],1 µg/mL
same,Activity,[4],inactive
same,Activity,[5],0.06%
same,MIC50,[6],8 ng/mL
same,MIC90,[6],0.015 µg/mL
same,MIC50,[7],0.06 µg/mL
same,MIC90,[7],0.12 µg/mL
same,MIC50,[8],0.25 µg/mL
same,MIC90,[8],0.25 µg/mL
same,Activity,[9],inactive
same,MIC50,[10],0.12 µg/mL
same,MIC90,[10],2 µg/mL
same,Activity,[11],0.06%
same,MIC50,[12],0.06 µg/mL
same,MIC90,[12],0.12 µg/mL
same,MIC50,[13],0.25 µg/mL
same,MIC90,[13],1 µg/mL
same,MIC50,[14],0.06 µg/mL
same,MIC90,[14],0.12 µg/mL
same,MIC50,[15],0.5 µg/mL
same,MIC90,[15],1 µg/mL
same,Activity,[16],inactive
same,MIC50,[17],0.12 µg/mL
same,MIC90,[17],0.25 µg/mL
same,Activity,[18],inactive
same,Activity,[19],inactive
same,Activity,[20],0.06%
same,MIC50,[21],0.25 µg/mL
same,MIC90,[21],16 µg/mL
same,MIC50,[22],0.12 µg/mL
same,MIC90,[22],4 µg/mL
same,Activity,[23],inactive
same,Activity,[24],0.06%
same,Activity,[25],inactive
same,MIC50,[26],16 µg/mL
same,MIC90,[26],32 µg/mL
same,MIC,[27],0.25 µg/mL
same,MIC50,[27],0.25 µg/mL
same,Activity,[28],inactive
same,Activity,[29],inactive
same,Activity,[30],inactive
same,Activity,[31],0.06%
same,MIC50,[32],0.06 µg/mL
same,MIC90,[32],0.12 µg/mL
same,Activity,[33],0.06%
same,Activity,[34],0.06%
same,Activity,[35],0.06%
same,MIC50,[36],0.5 µg/mL
same,MIC90,[36],1 µg/mL
NC[C@H]1O[C@H](O[C@H]2[C@H](O)[C@@H](O[C@H]3O[C@H](CO)[C@@H](O)[C@H](N)[C@H]3O)[C@H](N)C[C@@H]2N)[C@H](N)C[C@@H]1O [TOBRAMYCIN],MIC50,[1],0.06 µg/mL
same,MIC90,[1],> 8 µg/mL
same,MIC50,[3],0.5 µg/mL
same,MIC90,[3],1 µg/mL
same,Activity,[4],100%
same,Activity,[37],100%
same,Activity,[5],95.5%
same,Activity,[38],0%
same,MIC50,[7],0.06 µg/mL
same,MIC90,[7],> 8 µg/mL
same,Activity,[9],100%
same,MIC50,[10],0.25 µg/mL
same,MIC90,[10],1 µg/mL
same,Activity,[39],44.8%
same,Activity,[11],95.5%
same,MIC50,[12],0.06 µg/mL
same,MIC90,[12],> 8 µg/mL
same,MIC50,[13],16 µg/mL
same,MIC90,[13],32 µg/mL
same,Activity,[40],1.9%
same,Activity,[41],60.4%
same,MIC50,[14],0.015 µg/mL
same,MIC90,[14],0.06 µg/mL
same,Activity,[42],92.6%
same,Activity,[16],inactive
same,MIC50,[17],1 µg/mL
same,MIC90,[17],4 µg/mL
same,Activity,[18],16.7%
same,Activity,[43],74%
same,Activity,[19],34%
same,Activity,[20],95.5%
same,MIC50,[21],0.06 µg/mL
same,MIC90,[21],0.5 µg/mL
same,MIC50,[22],1 µg/mL
same,MIC90,[22],4 µg/mL
same,Activity,[23],27.3%
same,Activity,[24],95.5%
same,Activity,[25],100%
same,Activity,[44],95.2%
same,MIC50,[26],4 µg/mL
same,MIC90,[26],> 64 µg/mL
same,MIC50,[27],2 µg/mL
same,Activity,[28],46.7%
same,Activity,[30],68.4%
same,Activity,[31],95.5%
same,MIC50,[32],0.06 µg/mL
same,MIC90,[32],> 8 µg/mL
same,Activity,[45],94%
same,Activity,[33],95.5%
same,Activity,[34],95.5%
same,Activity,[35],95.5%
same,MIC50,[36],2 µg/mL
same,MIC90,[36],32 µg/mL
C[C@H]1COc2c(N3CCN(C)CC3)c(F)cc3c(=O)c(C(=O)O)cn1c23.C[C@H]1COc2c(N3CCN(C)CC3)c(F)cc3c(=O)c(C(=O)O)cn1c23.O [LEVOFLOXACIN],MIC50,[1],0.5 µg/mL
same,MIC90,[1],0.5 µg/mL
same,Activity,[46],100%
same,MIC50,[3],0.12 µg/mL
same,MIC90,[3],0.5 µg/mL
same,Activity,[4],91%
same,Activity,[37],100%
same,MIC50,[6],8 ng/mL
same,MIC90,[6],0.015 µg/mL
same,Activity,[38],100%
same,MIC50,[7],1 µg/mL
same,MIC90,[7],4 µg/mL
same,Activity,[9],100%
same,MIC50,[10],0.03 µg/mL
same,MIC90,[10],0.25 µg/mL
same,Activity,[39],1%
same,MIC50,[12],1 µg/mL
same,MIC90,[12],4 µg/mL
same,MIC50,[13],8 µg/mL
same,MIC90,[13],> 8 µg/mL
same,Activity,[47],58.5%
same,Activity,[40],0%
same,Activity,[41],37.7%
same,MIC50,[14],0.25 µg/mL
same,MIC90,[14],0.5 µg/mL
same,Activity,[42],66.7%
same,Activity,[16],100%
same,MIC50,[17],0.03 µg/mL
same,MIC90,[17],0.06 µg/mL
same,Activity,[18],0%
same,Activity,[19],74%
same,MIC50,[21],0.12 µg/mL
same,MIC90,[21],4 µg/mL
same,MIC50,[22],0.06 µg/mL
same,MIC90,[22],8 µg/mL
same,Activity,[23],0%
same,Activity,[25],100%
same,Activity,[44],96.2%
same,MIC50,[26],8 µg/mL
same,MIC90,[26],64 µg/mL
same,MIC50,[27],8 µg/mL
same,Activity,[28],66.7%
same,Activity,[30],100%
same,MIC50,[32],1 µg/mL
same,MIC90,[32],4 µg/mL
same,Activity,[45],86%
same,MIC50,[36],4 µg/mL
same,MIC90,[36],> 8 µg/mL
